Source: ChEMBL document CHEMBL4825768 (ACS Med Chem Lett, 2021)

Tests used:
[1] = target: T1, GTPase KRas (Homo sapiens, UniProt P01116, G12C); test: (§1) Inhibition of GDP-bound KRAS G12C mutant (1 to 169 residues) (unknown origin) assessed as inhibition of SOS-mediated nucleotide exchange pretreated with KRAS for 5 mins followed by incubation with SOS (564 to 1049 residues) and GTP for 30 mins and later incubated with GST-tagged cRAF (1 to 149 residues) for 10 mins by AlphaLISA assay; format: single protein
[2] = target: T1, GTPase KRas; test: as §1, with “20 hrs” for “5 mins”; format: single protein
[3] = target: T1, GTPase KRas; test: Inhibition of KRAS G12C mutant in human MIA PaCa-2 cells assessed as reduction in phosphorylated ERK1/2 level incubated for 2 hrs by MSD assay; format: cell-based
[4] = system: GTPase KRas (Homo sapiens), P01116 [G12D]; test: Binding affinity to GDP-bound KRAS G12D mutant (unknown origin) assessed as bound fraction at 100 uM incubated for 20 hrs by RF-MS analysis relative to control

## Cc1ccnc(C(C)C)c1-n1c(=O)nc(N(C)C2CN(C(=O)C3CO3)C2)c2cc(Cl)c(-c3ccccc3F)nc21 (centres undefined)
[1]
  IC50: 13800 nM
[2]
  IC50: 227 nM

## Cc1ccnc(C(C)C)c1-n1c(=O)nc(N2CCN(C(=O)C3OC3C)C[C@@H]2C)c2cc(Cl)c(-c3ccccc3F)nc21 (some centres undefined)
[1]
  IC50: 17800 nM
[2]
  IC50: 96 nM

## COC(=O)/C=C/C(=O)N1CCN(c2nc(=O)n(-c3c(C)ccnc3C(C)C)c3nc(-c4ccccc4F)c(Cl)cc23)[C@@H](C)C1
[1]
  IC50: 95 nM
[2]
  IC50: 26 nM
[3]
  IC50: 61 nM

## Cc1ccnc(C(C)C)c1-n1c(=O)nc(N2CCN(C(=O)[C@@H]3O[C@H]3CN3CCCCC3)C[C@@H]2C)c2cc(Cl)c(-c3ccccc3F)nc21
[1]
  IC50: 1120 nM
[2]
  IC50: 5 nM

## Cc1ccnc(C(C)C)c1-n1c(=O)nc(N2C[C@@H](C)N(C(=O)[C@H]3CO3)C[C@@H]2C)c2cc(Cl)c(-c3c(N)cccc3F)nc21
[1]
  IC50: 560 nM
[2]
  IC50: 15 nM
[4]
  Activity: 15.8%

## CCOC(=O)[C@@H]1O[C@H]1C(=O)N1CCN(c2nc(=O)n(-c3c(C)ccnc3C(C)C)c3nc(-c4ccccc4F)c(Cl)cc23)[C@@H](C)C1
[1]
  IC50: 216 nM
[2]
  IC50: 5 nM
[3]
  IC50: 96 nM
[4]
  Activity: 3.4%

## Cc1ccnc(C(C)C)c1-n1c(=O)nc(N2CCN(C(=O)C=O)C[C@@H]2C)c2cc(Cl)c(-c3ccccc3F)nc21
[1]
  IC50: 610 nM
[2]
  IC50: 39 nM
[3]
  IC50: 711 nM

## Cc1ccnc(C(C)C)c1-n1c(=O)nc(N2CCN(C(=O)[C@H]3CO3)C[C@@H]2C)c2cc(Cl)c(-c3ccccc3F)nc21
[1]
  IC50: 3780 nM
[2]
  IC50: 27 nM
[4]
  Activity: 3.4%

## Cc1ccnc(C(C)C)c1-n1c(=O)nc(N2CCN(C(=O)[C@@H]3O[C@H]3CO)C[C@@H]2C)c2cc(Cl)c(-c3ccccc3F)nc21
[1]
  IC50: 6260 nM
[2]
  IC50: 64 nM

## Cc1ccnc(C(C)C)c1-n1c(=O)nc(N2C[C@@H](C)N(C(=O)[C@H]3CO3)C[C@@H]2C)c2cc(Cl)c(-c3c(O)cccc3F)nc21
[1]
  IC50: 653 nM
[2]
  IC50: 24 nM
[4]
  Activity: 8.1%

## Cc1ccnc(C(C)C)c1-n1c(=O)nc(N2CC(NC(=O)C3CO3)C2)c2cc(Cl)c(-c3ccccc3F)nc21 (centres undefined)
[1]
  IC50: 4410 nM
[2]
  IC50: 18 nM
